Laboratory results: US6426370B1, “Use of thiol compounds in viral inactivation” (priority 2000, dated 2002)
“And” between values parts separate entries of the source, which are not always exact repeats. Equal values may be shown once.

Columns and labels:
[1] = test system: human immunodeficiency virus (HIV); assay: Syncytia formation of H9 cells infected with HIV virions pre-incubated with NAC; format: cell-based; conditions: for Test positives p/4 (syncytia formation): virions pre-incubated with 0.09 M NAC for 2 h, 4 parallel assays
Procedure: (§1) In order to examine whether NAC influences the HIV infection of cells, HIV-permissive cells ([…]) were incubated together with HIV-positive cell culture supernatant and the syncytia formation taking place upon successful infection of the host cell was observed. The H9 cell line is a CD4+ T-cell line of human origin (Popovic et al., 1984, Science 224:497-500). The HI virions (viral titer of the original solution is 10^7 viruses/ml) were initially pre-incubated together with NAC at room temperature for two hours (final NAC concentration 0.09 M, dissolved in serum-free cell culture medium) and then mixed with cell culture medium in a decadic dilution series (10^−1 to 10^−5). The same was made analogously with the control without NAC addition. Thereafter, the thus pretreated virions (and the untreated control, respectively) were added to the H9 cell culture for two hours to enable the adsorption of the viruses. Then, the suspension was washed with NAC-free medium and 48-well cell culture plates were covered therewith. Pour parallel assays were carried out for each dilution series. The giant cell formation was observed microscopically over an observation period of 26 days and assessed on a scale from 0 (no syncytia detectable) to 3 (great number of syncytia). It can be seen in connection with the untreated control (FIG. 1) that the syncytia formation is delayed when the viral titer decreases. The degree of syncytia formation is thus directly proportional to the number of infectious viruses. While with a viral titer of 10^5 the syncytia formation starts within four days already, it is delayed by about 2 weeks when the original virus solution has been diluted 10,000 times.
The delay of giant cell formation, which is shown in FIG. 1, is due to a reduction of the number of infectious virions—because of a correlation between viral titer and the number of syncytia. It is in no case caused by an influence of the metabolism of the host cell. The reduced capability to form giant cells (FIG. 1) can be quantified as titer exponent n by observing the laws established by Spearmann-Kärber.
With a total number of 4 preparations per dilution series there is [formula]
Thus, nNAC=−2.5 follows for the titer exponent after NAC treatment. Since the dilution stage of the untreated control, where syncytia formation could no longer be observed, was not determined accurately in this experiment, the maximum value for this preparation, i.e., 10^−6 was assumed as a calculation basis. Correspondingly, the titer of the untreated control is 10^−5,5 or less. The titer after the NAC treatment is 10^−2,5.

[2] = test system: human immunodeficiency virus (HIV); assay: p24-Ag test in cell culture medium of HIV-infected H9 cells, virions treated with NAC prior to infection; format: cell-based; conditions: for p24-Ag content in the cell culture medium, extinction at 492 nm: day 26 after infection, NAC-treated virions, exclusion limit <0.093
Procedure: as §1
This reduction of the infectiosity titer could also be confirmed by means of the p24-Ag test. For this purpose, the cell culture medium was renewed four days prior to the end of the experiment and the p24-Ag content of the cell culture medium was quantified upon termination of the experiment (day 26) (TABLE I). The p24-Ag values of the untreated control were always clearly positive.

[3] = test system: HBsAg (hepatitis-B virus surface antigen); assay: Enzyme immunoassay (Abbott Auszyme) of HBsAg in HepG2-2.2.15 supernatant treated with NAC; format: biochemical; conditions: 50 mM NAC
Procedure: The cell culture supernatant of a HBV-producing cell line (HepG2-2.2.15 cells, Sells et al., 1984, Proc. Natl. Acad. U.S.A. 84:1005-1009) was separated from the cells and then the viral antigens (HBsAg, hepatitis-B virus “surface” antigen) of the viral envelope were identified by means of an enzyme immunoassay (EIA). In a parallel experimental assay, the cell culture supernatant was treated with NAC directly before the EIA was carried out. […] Since as is known the main antigenic domain of HBsAg is stabilized by numerous disulfide bridges, it can be inferred from this experiment that NAC effects a change in the three-dimensional structure on the virus surface, which is caused by a separation of disulfide bridges. These very viral surface structures are essential for the attachment of the virus to its host cell and thus for its infectiosity.

HBsAg = HBsAg antigenicity of NAC-treated HBV-positive supernatant with or without dialysis; format: biochemical, hepatitis B virus; conditions: 15 min incubation with NAC, dialysis against TNE buffer at 4° C. overnight versus not dialyzed
[4] = test system: HBeAg (hepatitis-B virus e antigen); assay: Enzyme immunoassay (Abbott HBe EIA) of HBeAg in HepG2-2.2.15 supernatant treated with NAC; format: biochemical; conditions: 50 mM NAC
vaccinia viruses = assay: Plaque assay of vaccinia virus pre-incubated with NAC on CV1 cells; format: cell-based; conditions: pre-incubation with 3, 10, 30 mM NAC, assay variation ±9%

## CC(=O)N[C@@H](CS)C(=O)O [NAC, N-acetyl cysteine]
[1]; 0.09 M NAC versus untreated control
  reduction of the viral titer, measured on the basis of syncytia formation capability: at least three decimal exponents
[1]; 0.09 M NAC, 2 h, room temperature, syncytia formation
  titer exponent n after NAC treatment (Spearmann-Kärber): −2.5
[1]; NAC-treated virions diluted by more than 100 times (viral titer <10^4), observation period of four weeks
  syncytia formation within the observation period: no longer possible to observe syncytia formation
[1]; class limit -1 (virus dilution 10^-1)
  Test positives p/4 (syncytia formation): 4/4
[1]; class limit -2 (virus dilution 10^-2)
  Test positives p/4 (syncytia formation): 1/4
[1]; class limit -3 (virus dilution 10^-3)
  Test positives p/4 (syncytia formation): 1/4
[1]; class limit -4 (virus dilution 10^-4)
  Test positives p/4 (syncytia formation): 2/4
[1]; class limit -5 (virus dilution 10^-5)
  Test positives p/4 (syncytia formation): 0/4
[2]; from an HIV dilution factor of 1/100 on, day 26
  p24-Ag content in the cell culture medium versus untreated control: marked reduction
[2]; virus dilution 10^-1
  p24-Ag content in the cell culture medium, extinction at 492 nm: >2.0 O.D. 492 nm
[2]; virus dilution 10^-5
  p24-Ag content in the cell culture medium, extinction at 492 nm: 0.069 O.D. 492 nm and 0.04 O.D. 492 nm and 0.044 O.D. 492 nm
[3]
  detection of HBsAg by EIA: not possible
HBsAg
  effect of NAC on the viruses (HBsAg antigenicity) after removing NAC by dialysis: irreversible
[4]
  recognition of HBeAg by EIA: recognized unrestrictedly
Vaccinia viruses
  reduction of the viral titer of the vaccinia virus suspension: up to 70%
